Molecules are shown by their SMILES.

As usually defined, the melting point is the temperature, or range, at which the solid turns liquid.

In the case of `COc1cccc(Nc2nc(Nc3cc(C)n[nH]3)c3ccccc3n2)c1` [IIc-56, [2-(3-Methoxyphenylamino)-quinazolin-4-yl]-(5-methyl-2H-pyrazol-3-yl)-amine], the melting point lay in the range of 212 to 215 °C.

The values are drawn from patent US6653301B2, “Pyrazole compounds useful as protein kinase inhibitors” (Vertex Pharmaceuticals Incorporated, priority 2000, dated 2003).
